The source of these data is patent publication US20080274913A1, “Multiplex Array Useful for Assaying Protein-Protein Interaction” (priority 2005, published 2008).

SMILES strings stand for the structures.

The target of one test is T1, ADRA2C (Homo sapiens, UniProt P18825).
T1 sequence (P18825 1-462): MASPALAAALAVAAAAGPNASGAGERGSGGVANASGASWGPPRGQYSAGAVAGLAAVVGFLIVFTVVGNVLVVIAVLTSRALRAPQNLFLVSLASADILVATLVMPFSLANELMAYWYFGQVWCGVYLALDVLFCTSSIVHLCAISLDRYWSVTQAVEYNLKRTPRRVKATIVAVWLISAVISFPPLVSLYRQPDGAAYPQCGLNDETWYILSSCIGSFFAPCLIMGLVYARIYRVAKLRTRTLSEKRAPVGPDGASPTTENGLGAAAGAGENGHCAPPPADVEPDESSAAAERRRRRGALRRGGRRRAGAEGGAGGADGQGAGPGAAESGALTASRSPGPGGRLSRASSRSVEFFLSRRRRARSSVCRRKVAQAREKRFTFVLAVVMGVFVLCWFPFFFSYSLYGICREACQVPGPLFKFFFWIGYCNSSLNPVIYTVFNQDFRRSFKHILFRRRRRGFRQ
Particulars: antagonist experiments, FIGS. 11F to 11J.

The next test deals with ADRB1 (Homo sapiens, UniProt P08588). The following applies: FIG. 11F.
ADRB1, sequence (P08588 whole entry): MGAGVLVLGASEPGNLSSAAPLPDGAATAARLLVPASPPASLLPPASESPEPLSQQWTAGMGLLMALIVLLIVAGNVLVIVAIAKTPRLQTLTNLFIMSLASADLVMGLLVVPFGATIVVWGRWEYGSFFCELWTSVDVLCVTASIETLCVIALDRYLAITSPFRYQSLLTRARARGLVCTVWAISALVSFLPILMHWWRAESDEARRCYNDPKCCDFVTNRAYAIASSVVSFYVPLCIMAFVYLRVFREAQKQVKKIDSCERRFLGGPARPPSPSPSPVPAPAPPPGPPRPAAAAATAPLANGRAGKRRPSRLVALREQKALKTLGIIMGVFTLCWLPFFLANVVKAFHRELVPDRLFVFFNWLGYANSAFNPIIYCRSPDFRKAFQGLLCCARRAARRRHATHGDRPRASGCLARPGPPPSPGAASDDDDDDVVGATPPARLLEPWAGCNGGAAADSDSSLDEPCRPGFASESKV
For another test, the target named is T2, ADRA2B (Homo sapiens, UniProt P18089).
T2 sequence (P18089 1-450): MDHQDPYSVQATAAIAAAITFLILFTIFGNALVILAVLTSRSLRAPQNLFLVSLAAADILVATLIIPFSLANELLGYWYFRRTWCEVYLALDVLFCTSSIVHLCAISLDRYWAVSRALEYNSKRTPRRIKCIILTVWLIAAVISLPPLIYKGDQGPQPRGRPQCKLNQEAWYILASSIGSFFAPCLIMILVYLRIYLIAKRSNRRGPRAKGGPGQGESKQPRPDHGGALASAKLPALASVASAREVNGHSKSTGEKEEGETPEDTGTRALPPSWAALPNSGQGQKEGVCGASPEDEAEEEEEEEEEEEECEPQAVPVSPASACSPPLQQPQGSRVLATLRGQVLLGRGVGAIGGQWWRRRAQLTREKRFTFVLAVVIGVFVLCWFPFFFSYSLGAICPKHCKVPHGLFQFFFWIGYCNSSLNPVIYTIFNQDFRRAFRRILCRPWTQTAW
Particulars: antagonist experiments, FIGS. 11F to 11J.

The target of the next test is T3, ADRA2A (Homo sapiens, UniProt P08913).
T3 sequence (P08913 1-465): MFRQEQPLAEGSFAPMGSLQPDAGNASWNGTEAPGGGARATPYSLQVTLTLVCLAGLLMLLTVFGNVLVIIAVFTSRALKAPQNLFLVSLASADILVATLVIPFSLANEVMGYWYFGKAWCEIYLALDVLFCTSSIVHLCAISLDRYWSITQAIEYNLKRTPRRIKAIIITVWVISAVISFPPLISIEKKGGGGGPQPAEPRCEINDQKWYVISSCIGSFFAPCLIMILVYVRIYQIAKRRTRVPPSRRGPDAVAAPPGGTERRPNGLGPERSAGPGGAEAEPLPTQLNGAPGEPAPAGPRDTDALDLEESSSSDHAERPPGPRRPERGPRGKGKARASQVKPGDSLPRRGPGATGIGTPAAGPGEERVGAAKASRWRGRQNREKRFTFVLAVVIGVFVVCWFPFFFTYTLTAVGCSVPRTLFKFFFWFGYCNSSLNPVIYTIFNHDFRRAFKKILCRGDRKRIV
The following applies: antagonist experiments, FIGS. 11F to 11J.

Take `C=CCc1ccccc1OCC(O)CNC(C)C` (stereo not shown) [alprenolol]: the “inhibition of receptor response by antagonist” value on ADRA2C is recorded as “only a modest inhibitory effect at the highest concentrations tested”; against ADRB1, “markedly inhibited”; at ADRA2B it was “only a modest inhibitory effect at the highest concentrations tested”; against ADRA2A, “only a modest inhibitory effect at the highest concentrations tested”.
